Test results taken from paper PMC6797648 (Targeted Oncology, 2019).
pIC50, pKd: −log10 of the molar value. Values joined by “and” are separate entries in the source; they are usually repeats but may differ in a detail not shown here. Equal entries are not always repeated. One block for each compound: values may come before it.

Experiments:
[1] = Plasma and tissue distribution in A20 syngeneic model; format: in vivo, BALB/c mice; conditions: for Tumor concentration, times higher than plasma concentration: 4 h after the last dose
PIK3CD/PIK3R1 = PIK3CD/PIK3R1 (Homo sapiens, UniProt O00329); test: Purified enzyme-binding kinetics
[2] = Caco-2 permeability and percent recovery; conditions: human, Caco-2, pH 7.4
[3] = test system: peripheral blood basophils; conditions: healthy volunteers, oral administration, CD63 expression following ex vivo stimulation; cited from earlier work
Caco-2 cell monolayer = test: Caco-2 permeability and percent recovery
[4] = Allometric scaling of VSS to a hypothetical 60-kg human
PI3Kδ = conditions: read-out: IC50, inhibition of PI3Kδ in cellular assays; cited from earlier work
[5] = Blood to plasma ratio in human whole blood; format: in vitro ADME; conditions: from the human B:P of 1.4
purified PI3Kδ enzyme = conditions: read-out: IC50, inhibition of purified PI3Kδ enzyme; cited from earlier work
[6] = Single-dose oral and IV pharmacokinetics in beagle dogs; format: in vivo, beagle dog
[7] = healthy volunteers, oral; cited from earlier work
[8] = 50 mg/kg twice daily for 4 days
[9] = 1 µM, Caco-2, apical to basolateral
[10] = 1 µM, Caco-2, basolateral to apical
[11] = ME-401 versus idelalisib, in vitro

PIK3CD/PIK3R1, sequence (O00329 whole entry): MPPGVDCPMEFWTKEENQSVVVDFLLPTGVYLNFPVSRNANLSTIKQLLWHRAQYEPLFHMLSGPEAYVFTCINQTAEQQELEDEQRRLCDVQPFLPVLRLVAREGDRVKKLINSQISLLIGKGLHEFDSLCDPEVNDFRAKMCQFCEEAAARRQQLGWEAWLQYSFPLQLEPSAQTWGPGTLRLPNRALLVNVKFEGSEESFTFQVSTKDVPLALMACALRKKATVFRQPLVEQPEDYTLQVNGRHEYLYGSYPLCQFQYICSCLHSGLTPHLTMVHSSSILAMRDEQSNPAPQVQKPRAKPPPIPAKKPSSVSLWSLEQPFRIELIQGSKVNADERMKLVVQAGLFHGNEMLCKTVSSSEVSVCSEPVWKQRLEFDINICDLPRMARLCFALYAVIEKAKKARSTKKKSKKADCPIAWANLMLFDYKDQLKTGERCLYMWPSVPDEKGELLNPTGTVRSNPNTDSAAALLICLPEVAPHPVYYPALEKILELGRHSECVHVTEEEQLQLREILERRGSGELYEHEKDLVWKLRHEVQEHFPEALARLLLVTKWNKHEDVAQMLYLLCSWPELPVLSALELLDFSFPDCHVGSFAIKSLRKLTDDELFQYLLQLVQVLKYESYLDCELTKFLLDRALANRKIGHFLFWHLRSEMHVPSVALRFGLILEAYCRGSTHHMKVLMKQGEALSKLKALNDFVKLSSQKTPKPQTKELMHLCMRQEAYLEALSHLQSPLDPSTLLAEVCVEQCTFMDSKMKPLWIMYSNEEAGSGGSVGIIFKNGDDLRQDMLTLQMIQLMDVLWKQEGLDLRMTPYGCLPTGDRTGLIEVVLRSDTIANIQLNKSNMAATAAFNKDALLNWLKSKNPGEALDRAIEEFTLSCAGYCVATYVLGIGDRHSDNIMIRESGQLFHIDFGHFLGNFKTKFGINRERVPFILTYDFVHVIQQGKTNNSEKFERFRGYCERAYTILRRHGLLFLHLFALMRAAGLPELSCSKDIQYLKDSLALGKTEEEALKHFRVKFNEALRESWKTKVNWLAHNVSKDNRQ
PIK3CD/PIK3R1, sequence (P27986 whole entry partner): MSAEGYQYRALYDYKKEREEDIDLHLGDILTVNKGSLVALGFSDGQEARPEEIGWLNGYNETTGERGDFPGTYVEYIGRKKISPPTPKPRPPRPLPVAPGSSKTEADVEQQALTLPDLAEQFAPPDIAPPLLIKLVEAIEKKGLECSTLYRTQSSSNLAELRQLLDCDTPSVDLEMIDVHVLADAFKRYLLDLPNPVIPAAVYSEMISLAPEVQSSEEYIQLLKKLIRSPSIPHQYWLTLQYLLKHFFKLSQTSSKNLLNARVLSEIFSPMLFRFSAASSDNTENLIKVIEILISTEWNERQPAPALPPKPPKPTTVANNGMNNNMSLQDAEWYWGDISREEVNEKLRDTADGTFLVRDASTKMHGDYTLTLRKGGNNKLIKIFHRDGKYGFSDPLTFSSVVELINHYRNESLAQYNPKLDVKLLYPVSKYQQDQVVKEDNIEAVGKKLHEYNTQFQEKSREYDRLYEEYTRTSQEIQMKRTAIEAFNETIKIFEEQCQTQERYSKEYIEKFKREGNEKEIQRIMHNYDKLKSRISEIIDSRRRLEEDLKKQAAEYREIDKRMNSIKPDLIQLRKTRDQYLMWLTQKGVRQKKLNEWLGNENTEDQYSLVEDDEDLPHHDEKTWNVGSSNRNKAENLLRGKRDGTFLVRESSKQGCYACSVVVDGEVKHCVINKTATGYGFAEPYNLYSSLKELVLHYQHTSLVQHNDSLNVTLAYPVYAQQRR

- Tumor concentration, times higher than plasma concentration [1, 8]: approximately three times higher
- Dissociation rate, times higher than ME-401 (PIK3CD/PIK3R1; idelalisib versus ME-401): ~ 100 times
SMILES: CC[C@H](Nc1ncnc2[nH]cnc12)c1nc2cccc(F)c2c(=O)n1-c1ccccc1 [Idelalisib, idelalisib, reference compound]

- Papp at 2 h, 10 uM [2]: > 30 ×10⁻⁶ cm/s
SMILES: CC(C)NCC(O)COc1cccc2ccccc12 (stereo not drawn) [propranolol, reference compound]

- Tumor concentration, times higher than plasma concentration [1, 8]: approximately 20 times
- Brain tissue concentration as percent of plasma values ([1]; 75 mg/kg twice daily for 4 days, 4 and 24 h after the last dose): approximately 30%
- Tumor concentration, times higher than plasma concentration ([1]; 75 mg/kg twice daily for 4 days): approximately 30 times
- Decrease of tumor levels at 24 h compared with levels at 4 h ([1]; oral administration, A20 syngeneic mouse model): 30–50%
- Retained in the monolayer (Caco-2 cell monolayer; 1 µM, Caco-2): ~ 50%
- Recovery, AB, cell lysate included (Caco-2 cell monolayer; [9]): 79.3 ± 5.5%
- Recovery, AB, only the experimental solutions measured (Caco-2 cell monolayer; [9]): 30.3 ± 6.7%
- Recovery, BA, cell lysate included (Caco-2 cell monolayer; [10]): 85 ± 8.5%
- Recovery, BA, only the experimental solutions measured (Caco-2 cell monolayer; [10]): 69 ± 5.6%
- AB Papp (Caco-2 cell monolayer; apical to basolateral, Caco-2, pH 7.4, 2 h, 37 °C): 3.67 ± 1.37 × 10^−6 cm/s
- BA Papp (Caco-2 cell monolayer; basolateral to apical, Caco-2, pH 7.4, 2 h, 37 °C): 7.69 ± 1.39 × 10^−6 cm/s
- Extrapolated human VSS, times higher than blood volume [4]: approximately 100 times
- Extrapolated human VSS, times higher than whole body volume [4]: approximately 15 times
- Extrapolated human VSS, times larger than that reported for idelalisib [4]: ~ 28 times
- Drug in the blood that distributes into blood cells at equilibrium [5]: approximately 60%
- AUCinf ([6]; dogs, 2 mg/kg IV): 1247 ng·h/mL
- Bioavailability ([6]; dogs, oral 2 mg/kg versus IV 2 mg/kg): 79%
- AUCinf ([6]; fasted dogs, 2 mg/kg orally): 980 ng·h/mL
- Residence time (PIK3CD/PIK3R1; 22 °C): ~5 h and 5.3 h
- kd dissociation rate constant (PIK3CD/PIK3R1; 22 °C, 1:1 binding model): 5.2e-05 s⁻¹
- Binds more tightly than idelalisib (PIK3CD/PIK3R1; [11]): ~ 37 times
- Remains on-target longer than idelalisib (PIK3CD/PIK3R1; [11]): ~ 138 times
- pKd (PIK3CD/PIK3R1; read-out: KD equilibrium dissociation constant, 22 °C, 1:1 binding model): 10.52
SMILES: CN1CCC(c2ccccc2CC(C)(C)Nc2nc(N3CCOCC3)nc(-n3c(C(F)F)nc4ccccc43)n2)CC1 [ME-401]
- EC90 plasma concentration, inhibition of basophil activation [3]: 5 ng/mL
- pIC50 (PI3Kδ): 9.22
- pIC50 (purified PI3Kδ enzyme): 8.30
- Half-life [7]: 28 h
